Measured values published in patent publication US10800755B2, “2,6-disubstituted pyridine derivative” (Sumitomo Dainippon Pharma Co., Ltd., priority 2017, dated 2020).
Read-outs that look alike come from different tables or passages of the source.

How the values were obtained:
human D2 receptor = human D2 receptor (Homo sapiens (Human), UniProt P14416); assay: Test 2: binding activity to human D2 receptor ([3H] spiperone, CHO cell membrane); conditions: [3H] spiperone; read-out: D2 binding affinity (Ki value)
Method: (§1) Test 2: Evaluation of Binding Activity to Human 5-HT1A Receptor, Human D4 Receptor, and Human D2 Receptor
(§2) CHO cell membrane fraction in which human 5-HT1A receptor, human D4 receptor, and human D2 receptor were expressed was purchased from PerkinElmer Co., Ltd. In the evaluation test of binding, the test compound dissolved in DMSO, each receptor membrane preparation diluted with buffer solution, and [3H] […] The nonspecific binding to each receptor was evaluated by a competition binding experiment in the presence of 10 μmol/L 8-OH-DPAT, 10 μmol/L dopamine, or 10 μmol/L spiperone, respectively.

human 5-HT1A receptor [1] = target: T1, human 5-HT1A receptor (Homo sapiens (Human), UniProt P08908); assay: Test 2: binding activity to human 5-HT1A receptor ([3H] 8-OH-DPAT, CHO cell membrane); conditions: [3H] 8-OH-DPAT; read-out: 5-HT1A binding affinity (Ki value)
Method: as §1, §2

hERG channel = hERG channel (Homo sapiens (Human), UniProt Q12809); assay: Test 5-2: activity for inhibiting hERG channel (whole-cell patch clamp, hERG-CHO cell, Qube); type: cell-based; conditions: read-out: hERG inhibition IC50
Method: Test 5-2: Evaluation of Activity for Inhibiting hERG Channel
The activity of the present compound for inhibiting hERG channel was measured by whole-cell patch clamp method with auto patch clamp system, using CHO cell wherein hERG channel involved in human rapidly activating delayed rectifier potassium current (IKr) was forcibly expressed.
hERG-CHO cell purchased from ChanTest was incubated at 37° C. in a CO2 incubator, and the cell was exfoliated from the flask with trypsin to prepare a cell suspension, shortly before the hERG current measurement.
Extracellular fluid: 2 mmol/L CaCl2, 1 mmol/L MgCl2, 10 mmol/L HEPES, 4 mmol/L KCl, 145 mmol/L NaCl, 10 mmol/L glucose
Intracellular fluid: 10 mmol/L HEPES, 10 mmol/L EGTA, 20 mmol/L KCl, 130 mmol/L KF
Test compound solution: The compound was dissolved in DMSO by adjusting the concentration to 2 mmol/L or 20 mmol/L to prepare each test compound solution. […] (Measurement of Current Value and Data Analysis)
The cell suspension, the extracellular fluid, the intracellular fluid, and the measurement plate were set in an auto patch clamp system, and the hERG current was measured by whole-cell patch clamp method. The voltage-protocol was as follows: the holding potential was adjusted to −80 mV, the depolarizing pulse was added at −50 mV to +20 mV for 5 seconds, the repolarizing pulse was added at −50 mV for 5 seconds, then the potential was returned to the holding potential. Each pulse interval was 15 seconds. The data analysis was carried out with Qube Assay Software (Sophion Scientific). The test was carried out applying increscently 4 concentrations of each test compound, and the average of the peak tail currents that were obtained by the last 3 stimulations in each applied concentration was made to be the evaluated data. By using the current inhibition rate for the pre-applied current at each concentration of each test compound, IC50 value was calculated by Hill equation with the software.

human D4 receptor [2] = target: T2, human D4 receptor (Homo sapiens (Human), UniProt P21917); assay: Test 1: agonistic activity for human D4 receptor (aequorin/Gα16 luminescence in CHO-K1 cell); type: cell-based; conditions: for Emax: CHO-K1; for Emax / D4 agonistic activity Emax: 100% = 10 μmol/L endogenous ligand; for EC50: CHO-K1 cell, aequorin luminescence
Method: (§3) Test 1: Evaluation of Agonistic Activity for Human 5-HT1A Receptor and Human D4 Receptor
(§4) Aequorin, Gα16 proteins, and each receptor were transiently expressed in CHO-K1 cell (Chinese hamster ovary), and seeded to 384-well plate. The plate was incubated in a CO2 incubator at 37° C. for 24 hours. Each example compound dissolved in DMSO was added thereto, and the change of luminescence amount was measured with Hamamatsu FDSS/μCELL System (Hamamatsu Photonics).

human 5-HT1A receptor [3] = target: T1, human 5-HT1A receptor; assay: Test 1: agonistic activity for human 5-HT1A receptor (aequorin/Gα16 luminescence in CHO-K1 cell); type: cell-based; conditions: for Emax: CHO-K1; for Emax / 5-HT1A agonistic activity Emax: 100% = 10 μmol/L endogenous ligand; for EC50: CHO-K1 cell, aequorin luminescence
Method: as §3, §4

human D4 receptor [4] = target: T2, human D4 receptor; assay: Test 2: binding activity to human D4 receptor ([3H] dopamine, CHO cell membrane)
Method: as §1, §2

[5] = Test 3-1: metabolic stability test of human liver microsome (0.1 mg/mL); type: in vitro ADME; conditions: test compound 0.1 μmol/L, 37° C., 30 minutes
Method: Test 3-1: Metabolic Stability Test of Human Liver Microsome
The stability of the present compounds for human liver microsome metabolism was evaluated as mentioned below. The used human liver microsome was obtained from Xenontech. Human liver microsome, NADPH, and each test compound were mixed in 25 mmol/L phosphate buffer solution (pH 7.4) to adjust each concentration as shown below, and the mixture was incubated at 37° C. for 30 minutes. • human liver microsome: 0.1 mg/mL • NAPDH: 3.2 mmol/L • test compound: 0.1 μmol/L
The residual ratio of the test compound in each sample after the incubation for 30 minutes was measured with a LC-MS, and the metabolic stability of human liver microsome was calculated about each test compound with the following formula. Metabolic stability of human liver microsome (mL/min/mg protein)=−LN (residual ratio)/“reaction time”/“concentration of human liver microsome”

[6] = [3H] dopamine, read-out: D4 binding affinity (Ki value)

Sequence of hERG channel (Q12809 whole entry): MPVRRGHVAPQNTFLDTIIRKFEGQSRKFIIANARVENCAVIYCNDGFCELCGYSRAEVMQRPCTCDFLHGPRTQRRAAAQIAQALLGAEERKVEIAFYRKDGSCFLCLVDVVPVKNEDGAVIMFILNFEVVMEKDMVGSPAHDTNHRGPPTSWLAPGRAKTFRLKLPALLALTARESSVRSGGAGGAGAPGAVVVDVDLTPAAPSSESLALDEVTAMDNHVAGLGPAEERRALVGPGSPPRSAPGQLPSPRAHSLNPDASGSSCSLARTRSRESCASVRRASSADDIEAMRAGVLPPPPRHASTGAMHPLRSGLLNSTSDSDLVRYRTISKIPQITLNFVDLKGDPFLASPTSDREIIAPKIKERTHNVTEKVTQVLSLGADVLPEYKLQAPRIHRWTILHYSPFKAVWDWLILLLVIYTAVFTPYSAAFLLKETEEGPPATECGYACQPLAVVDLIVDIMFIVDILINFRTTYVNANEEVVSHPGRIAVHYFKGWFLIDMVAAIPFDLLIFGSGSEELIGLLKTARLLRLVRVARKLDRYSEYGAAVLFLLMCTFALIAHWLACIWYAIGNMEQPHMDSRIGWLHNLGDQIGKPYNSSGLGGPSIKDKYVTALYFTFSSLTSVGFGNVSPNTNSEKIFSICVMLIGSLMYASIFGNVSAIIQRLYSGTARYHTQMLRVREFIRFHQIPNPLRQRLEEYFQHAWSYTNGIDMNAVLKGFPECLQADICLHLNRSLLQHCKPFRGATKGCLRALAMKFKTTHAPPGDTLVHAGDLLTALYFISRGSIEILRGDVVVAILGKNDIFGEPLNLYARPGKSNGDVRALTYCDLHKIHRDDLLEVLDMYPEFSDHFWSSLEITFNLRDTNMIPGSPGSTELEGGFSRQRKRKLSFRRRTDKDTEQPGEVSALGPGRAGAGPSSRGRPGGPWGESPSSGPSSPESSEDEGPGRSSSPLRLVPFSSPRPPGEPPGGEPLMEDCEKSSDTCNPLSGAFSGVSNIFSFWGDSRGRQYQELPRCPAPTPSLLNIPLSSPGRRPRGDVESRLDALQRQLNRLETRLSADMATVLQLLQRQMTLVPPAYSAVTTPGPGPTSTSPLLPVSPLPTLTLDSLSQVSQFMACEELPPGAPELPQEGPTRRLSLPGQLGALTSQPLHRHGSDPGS
T2 sequence (P21917 whole entry): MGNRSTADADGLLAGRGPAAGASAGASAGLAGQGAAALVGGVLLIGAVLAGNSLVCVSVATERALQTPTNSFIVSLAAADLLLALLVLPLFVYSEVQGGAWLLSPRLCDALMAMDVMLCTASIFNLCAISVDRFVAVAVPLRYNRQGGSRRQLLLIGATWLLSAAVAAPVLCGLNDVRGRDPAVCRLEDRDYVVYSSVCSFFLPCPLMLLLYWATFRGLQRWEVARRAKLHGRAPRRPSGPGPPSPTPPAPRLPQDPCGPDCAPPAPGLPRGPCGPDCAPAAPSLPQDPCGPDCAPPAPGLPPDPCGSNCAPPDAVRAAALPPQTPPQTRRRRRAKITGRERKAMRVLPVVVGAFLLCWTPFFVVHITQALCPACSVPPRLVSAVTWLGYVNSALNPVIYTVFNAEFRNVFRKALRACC
T1 sequence (P08908 whole entry): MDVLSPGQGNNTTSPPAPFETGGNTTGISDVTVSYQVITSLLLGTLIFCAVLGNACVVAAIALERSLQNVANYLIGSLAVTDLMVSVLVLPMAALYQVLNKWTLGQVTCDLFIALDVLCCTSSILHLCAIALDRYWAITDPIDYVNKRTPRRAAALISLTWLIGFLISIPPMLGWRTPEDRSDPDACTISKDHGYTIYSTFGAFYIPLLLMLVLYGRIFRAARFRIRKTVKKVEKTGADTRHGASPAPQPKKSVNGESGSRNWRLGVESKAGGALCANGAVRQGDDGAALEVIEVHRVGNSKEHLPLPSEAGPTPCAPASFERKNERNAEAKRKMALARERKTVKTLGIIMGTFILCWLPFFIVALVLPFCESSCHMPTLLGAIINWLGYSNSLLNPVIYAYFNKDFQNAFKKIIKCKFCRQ
Sequence of human D2 receptor (P14416 whole entry): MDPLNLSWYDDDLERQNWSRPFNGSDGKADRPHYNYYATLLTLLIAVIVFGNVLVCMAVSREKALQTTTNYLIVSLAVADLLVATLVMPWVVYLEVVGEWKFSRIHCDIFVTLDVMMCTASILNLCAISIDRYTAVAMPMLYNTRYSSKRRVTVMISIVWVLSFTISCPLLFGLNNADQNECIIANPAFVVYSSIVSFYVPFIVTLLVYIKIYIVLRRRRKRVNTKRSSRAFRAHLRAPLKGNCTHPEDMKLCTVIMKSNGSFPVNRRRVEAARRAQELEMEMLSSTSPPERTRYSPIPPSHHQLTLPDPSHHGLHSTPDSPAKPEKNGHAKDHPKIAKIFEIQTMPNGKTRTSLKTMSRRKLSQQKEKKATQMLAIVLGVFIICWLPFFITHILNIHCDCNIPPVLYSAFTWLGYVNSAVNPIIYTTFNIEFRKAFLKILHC

Compound | Ki (human D2 receptor) | Ki (human 5-HT1A receptor [1]) | IC50 (hERG channel) | Emax (human D4 receptor [2]) | EC50 (human D4 receptor [2]) | Emax (human 5-HT1A receptor [3]) | EC50 (human 5-HT1A receptor [3]) | Ki (human D4 receptor [4]; [6]) | Metabolic stability of human liver microsome [5] | Ki (human D4 receptor [4]) | D4 agonistic activity Emax (human D4 receptor [2]) | 5-HT1A agonistic activity Emax (human 5-HT1A receptor [3])
O=C(NCCN1CCC(c2cccc(C(F)(F)F)n2)CC1)[C@H]1C[C@@H]2CC[C@H]1O2 [Example 21] | 2170 nM | 15 nM | > 10000 nM | 62% | 65 nM | 30% | 84 nM | 201 nM | <0.05 mL/min/mg protein | – | – | –
COCC(C)(C)C(=O)NCCN1CC=C(c2cccc(C(F)(F)F)n2)CC1 [Example 18] | 2210 nM | 21 nM | > 10000 nM | 61% | 37 nM | 43% | 68 nM | – | <0.05 mL/min/mg protein | 19 nM | – | –
COc1cccc(C2CCN(CCNC(=O)C3CCOCC3)CC2)n1 [Example 33] | > 10000 nM | 21 nM | > 10000 nM | 62% | 13 nM | 83% | 22 nM | 119 nM | <0.05 mL/min/mg protein | – | – | –
O=C(NCCN1CCC(c2cccc(C(F)(F)F)n2)CC1)C1CCCO1 (stereo not drawn) [Example 25] | 3330 nM | 20 nM | > 10000 nM | 49% | 30 nM | 46% | 67 nM | 423 nM | <0.05 mL/min/mg protein | – | – | –
N#Cc1cccc(C2CCN(CCNC(=O)C3CCOCC3)CC2)n1 [Example 35, N-{2-[4-(6-Cyanopyridin-2-yl)piperidin-1-yl]ethyl}-tetrahydro-2H-pyran-4-carboxamide] | > 10000 nM | 278 nM | – | 52% | 64 nM | 27% | 525 nM | 2260 nM | – | – | – | –
Cc1cccc(C2CCN(CCNC(=O)C3CCOC3)CC2)n1 (stereo not drawn) [Example 22] | > 10000 nM | 58 nM | – | 57% | 57 nM | 25% | 595 nM | 2240 nM | – | – | – | –
COCC(C)(C)C(=O)NCCN1CCC(c2cccc(C)n2)CC1 [Example 5] | > 10000 nM | 80 nM | – | – | 55.8 nM | – | 42 nM | 170 nM | <0.01 mL/min/mg protein | – | 57% | 100%
O=C(NCCN1CCC(c2cccc(F)n2)CC1)C1CCOCC1 [Example 32] | > 10000 nM | 42 nM | – | 67% | 7 nM | 51% | 67 nM | 96 nM | – | – | – | –
Nc1cccc(C2CCN(CCNC(=O)C3CCOCC3)CC2)n1 [Example 36, N-{2-[4-(6-Aminopyridin-2-yl)piperidin-1-yl]ethyl}-tetrahydro-2H-pyran-4-carboxamide] | > 10000 nM | 132 nM | – | 58% | 31 nM | 38% | 279 nM | 120 nM | – | – | – | –
Cc1cccc(C2CCN(CCNC(=O)C3CCCO3)CC2)n1 (stereo not drawn) [Example 24] | > 10000 nM | 27 nM | – | 62% | 32 nM | 50% | 67 nM | 3380 nM | – | – | – | –
O=C(NCCN1CCC(c2cccc(C(F)(F)F)n2)CC1)C1CCOC1 (stereo not drawn) [Example 23] | > 10000 nM | 166 nM | – | 59% | 62 nM | 28% | 632 nM | 408 nM | – | – | – | –
COCC(C)(C)C(=O)NCCN1CCC(c2cccc(C(F)(F)F)n2)CC1 [Example 6] | > 10000 nM | 37 nM | – | – | < 10 nM | – | 44 nM | 101 nM | <0.01 mL/min/mg protein | – | 58% | 96%
O=C(NCCN1CC=C(c2cccc(C(F)(F)F)n2)CC1)C1CCOCC1 [Example 19] | > 10000 nM | 0.8 nM | – | 84% | 9 nM | 65% | < 10 nM | – | – | 8 nM | – | –
CO[C@H]1CC[C@H](C(=O)NCCN2CCC(c3cccc(C)n3)CC2)CC1 [Example 26] | > 10000 nM | 79 nM | – | 36% | 3390 nM | 43% | 395 nM | 1900 nM | – | – | – | –
CNc1cccc(C2CCN(CCNC(=O)C3CCOCC3)CC2)n1 [Example 37, N-(2-{4-[6-(Methylamino)pyridin-2-yl]piperidin-1-yl}ethyl)-tetrahydro-2H-pyran-4-carboxamide] | > 10000 nM | 108 nM | – | 57% | 52 nM | 40% | 343 nM | 73 nM | – | – | – | –
CO[C@H]1CC[C@H](C(=O)NCCN2CCC(c3cccc(C(F)(F)F)n3)CC2)CC1 [Example 27] | > 10000 nM | 77 nM | – | 51% | 1650 nM | 44% | 570 nM | 2470 nM | – | – | – | –
COCC(C)(C)C(=O)NCCN1CC=C(c2cccc(C)n2)CC1 [Example 17] | > 10000 nM | 26 nM | – | 51% | 44 nM | 30% | 94 nM | – | – | 91 nM | – | –
